Experiments:
[1] = molecular target: T1, Brd2(1) (Homo sapiens, UniProt P25440); experiment: DSF thermal shift; assay type: binding; conditions: wild type
T1 construct: Plasmids of the eight single BET bromodomain constructs Brd2(1), Brd2(2), Brd3(1), Brd3(2); His6 (N); made in house; host or cells: E. coli BL21(DE3)
Experimental: (§1) DSF assays were performed on a LightCycler®480 from Roche or a Mx3005P Real Time PCR machine from Stratagene. […] SYPRO®Orange from Invitrogen Molecular Probes® was used as a reporter dye to monitor the denaturing process of the proteins. Samples were assayed on a 96-well plate with final protein concentrations of 2 μM for the LightCycler®480 and 6 μM for Mx3005P. Compounds were added at a final concentration of 10 μM for the LightCycler®480 and 30 μM for Mx3005P, while the tetra acetylated histone peptide was added to a final concentration of 100 μM and 300 μM respectively. […] The temperature was raised with a step of 0.6° C. per minute from 37° C. to 95° C. with the LightCycler®480 collecting 39 measurements per ° C., and 1° C. per minute from 25° C. to 95° C. with Mx3005P, collecting fluorescence readings at the end of each interval. Each sample was run in triplicates.
(§2) Collected data was analysed by IGOR Pro 6, a scientific software tool from Wave Metrics, Inc. Analysis was done following the recommendations of Niesen et al.. Fluorescence intensity was plotted as a function of temperature, generating a sigmoidal curve described by a two-state transition from folded to unfolded protein. Curves were fitted by the following sigmoidal equation: […]
(§3) A1 and A2 are the values of minimum and maximum intensities, respectively, x0 is the inflection point and dx is the rate. Fitted curves were differentiated in IGOR Pro 6 and the maximum of the first derivative was identified using the same program. These values correspond to the inflection points of the transition curves and thus to the melting temperatures of the proteins (Tm).

[2] = molecular target: T2, Brd2(2) (Homo sapiens, UniProt P25440); experiment: DSF thermal shift; assay type: binding; conditions: wild type
T2 construct: Plasmids of the eight single BET bromodomain constructs Brd2(1), Brd2(2), Brd3(1), Brd3(2); His6 (N); made in house; host or cells: E. coli BL21(DE3)
T2 sequence (P25440 344-453 limits assumed): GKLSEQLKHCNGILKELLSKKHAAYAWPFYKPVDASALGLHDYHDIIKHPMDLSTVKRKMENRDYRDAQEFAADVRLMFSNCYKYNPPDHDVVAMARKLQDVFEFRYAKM
Experimental: as §1, §2, §3

[3] = molecular target: Brd2(1) Leu110-Ile (Homo sapiens, UniProt P25440, L110I); experiment: DSF thermal shift; assay type: binding; parameters: Plasmids of the eight single BET bromodomain constructs Brd2(1), Brd2(2), Brd3(1), Brd3(2); His6 (N); made in house; host or cells: E. coli BL21(DE3); conditions: mutant
Brd2(1) Leu110-Ile, sequence (P25440 74-180 L110I limits assumed): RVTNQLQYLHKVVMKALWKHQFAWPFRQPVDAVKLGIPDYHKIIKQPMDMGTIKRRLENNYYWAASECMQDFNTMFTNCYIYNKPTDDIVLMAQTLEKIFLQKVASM
Experimental: as §1, §2, §3

[4] = molecular target: Brd2(1)*(Leu110-Ala) (Homo sapiens, UniProt P25440, L110A); experiment: DSF thermal shift; assay type: binding; parameters: Plasmids of the eight single BET bromodomain constructs Brd2(1), Brd2(2), Brd3(1), Brd3(2); His6 (N); made in house; host or cells: E. coli BL21(DE3); conditions: mutant
Brd2(1)*(Leu110-Ala), sequence (P25440 74-180 L110A limits assumed): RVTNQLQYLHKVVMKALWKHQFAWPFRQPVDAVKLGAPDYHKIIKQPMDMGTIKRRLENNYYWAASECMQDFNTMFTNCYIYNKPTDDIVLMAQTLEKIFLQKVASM
Experimental: as §1, §2, §3

[5] = molecular target: Brd2(2) Leu383-Ile (Homo sapiens, UniProt P25440, L383I); experiment: DSF thermal shift; assay type: binding; parameters: Plasmids of the eight single BET bromodomain constructs Brd2(1), Brd2(2), Brd3(1), Brd3(2); His6 (N); made in house; host or cells: E. coli BL21(DE3); conditions: mutant
Brd2(2) Leu383-Ile, sequence (P25440 344-453 L383I limits assumed): as the sequence (P25440 344-453 limits assumed) above, with L40I counted along it
Experimental: as §1, §2, §3

[6] = molecular target: Brd2(2)*(Leu383-Ala) (Homo sapiens, UniProt P25440, L383A); experiment: DSF thermal shift; assay type: binding; parameters: Plasmids of the eight single BET bromodomain constructs Brd2(1), Brd2(2), Brd3(1), Brd3(2); His6 (N); made in house; host or cells: E. coli BL21(DE3); conditions: mutant
Brd2(2)*(Leu383-Ala), sequence (P25440 344-453 L383A limits assumed): as the sequence (P25440 344-453 limits assumed) above, with L40A counted along it
Experimental: as §1, §2, §3

[7] = molecular target: T3, Brd4(1) (Homo sapiens, UniProt O60885); experiment: DSF thermal shift; assay type: binding; conditions: wild type
T3 construct: Plasmids of the eight single BET bromodomain constructs Brd2(1), Brd2(2), Brd3(1), Brd3(2), Brd4(1), Brd4(2), Brdt(1) and Brdt(2); His6 (N); made in house; host or cells: E. coli BL21(DE3)
Experimental: as §1, §2, §3

[8] = molecular target: T4, Brd4(2) (Homo sapiens, UniProt O60885); experiment: DSF thermal shift; assay type: binding; conditions: wild type
T4 construct: Plasmids of the eight single BET bromodomain constructs Brd2(1), Brd2(2), Brd3(1), Brd3(2), Brd4(1), Brd4(2), Brdt(1) and Brdt(2); His6 (N); made in house; host or cells: E. coli BL21(DE3)
Experimental: as §1, §2, §3

[9] = system: WT and mutants (Leu to Ala, Leu to Val and Leu to Ile) of Brd2(2); experiment: ITC of compound into protein (FIG. 16); assay type: binding, human; conditions: 250 μM compound into 25 μM protein; result in words
Experimental: To investigate the utility of the new compounds further, the inventors performed isothermal titration experiments by titrating 250 μM compound solutions (AL, ME-Am1, ET-Am1, ME-Am2, ET-Am2, 9-ME, 9-ET, 9-ME-Am1 and 9-ET-Am1) 25 μM protein solutions (WT and mutants (Leu to Ala, Leu to Val and Leu to Ile) of Brd2(2)).
ITC experiments were carried out on a ITC200 instrument from MicroCal™ Experiments were conducted at 3 different temperatures 15° C., 25° C. and 30° C., while stirring at 1000 rpm. Buffers of proteins, peptide and compounds were matched to 20 mM HEPES pH 7.5 at 25° C. and 100 mM NaCl. Frozen protein was buffer exchanged as described for the DSF experiments. Each titration comprised 1 initial injection of 0.4 μl lasting 0.8 s, followed by 19 injections of 2 μl lasting 4 s each at 2 min intervals. The initial injection was discarded during data analysis. Standard and reverse titrations were conducted depending on the binding partners.
All the data was fitted to a single binding site model using the Microcal LLC ITC200 Origin software provided by the manufacturer to yield enthalpies of binding (ΔH) and binding constants (Kas). Further thermodynamic parameters were calculated from these values (changes in entropy ΔS, changes in free energy AG and dissociation constants (Kds)).

[10] = molecular target: T5, Brd2(1)*(Met165-Leu) (Homo sapiens, UniProt P25440, M165L); experiment: DSF thermal shift; assay type: binding; conditions: mutant
T5 construct: Plasmids of the eight single BET bromodomain constructs Brd2(1), Brd2(2), Brd3(1), Brd3(2); His6 (N); made in house; host or cells: E. coli BL21(DE3)
T5 sequence (P25440 74-180 M165L limits assumed): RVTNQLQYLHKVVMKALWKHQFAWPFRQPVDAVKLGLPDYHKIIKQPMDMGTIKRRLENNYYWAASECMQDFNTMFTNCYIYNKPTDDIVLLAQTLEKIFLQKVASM
Experimental: (§4) DSF assays were performed on a LightCycler®480 from Roche or a Mx3005P Real Time PCR machine from Stratagene. Prior to DSF assays, frozen proteins were buffer exchanged using Vivaspin®6 concentrators with a 10 kDa cutoff on a Centrifuge 5430 from Eppendorf at a speed of 6000×g to remove glycerol and to buffer the proteins in 20 mM HEPES pH 7.5 at 25° C. and 100 mM NaCl. SYPRO®Orange from Invitrogen Molecular Probes® was used as a reporter dye to monitor the denaturing process of the proteins. Samples were assayed on a 96-well plate with final protein concentrations of 2 μM for the LightCycler®480 and 6 μM for Mx3005P. Compounds were added at a final concentration of 10 μM for the LightCycler®480 and 30 μM for Mx3005P, while the tetra acetylated histone peptide was added to a final concentration of 100 μM and 300 μM respectively. […] The temperature was raised with a step of 0.6° C. per minute from 37° C. to 95° C. with the LightCycler®480 collecting 39 measurements per ° C., and 1° C. per minute from 25° C. to 95° C. with Mx3005P, collecting fluorescence readings at the end of each interval. Each sample was run in triplicates.
as §2, §3

[11] = molecular target: T6, Brd2(2)*(Met438-Ala) (Homo sapiens, UniProt P25440, M438A); experiment: DSF thermal shift; assay type: binding; conditions: mutant
T6 construct: Plasmids of the eight single BET bromodomain constructs Brd2(1), Brd2(2), Brd3(1), Brd3(2); His6 (N); made in house; host or cells: E. coli BL21(DE3)
T6 sequence (P25440 344-453 M438A limits assumed): as the sequence (P25440 344-453 limits assumed) above, with M95A counted along it
Experimental: as §4, §2, §3

[12] = molecular target: T7, Brd2(2)*(Met438-Leu) (Homo sapiens, UniProt P25440, M438L); experiment: DSF thermal shift; assay type: binding; conditions: mutant
T7 construct: Plasmids of the eight single BET bromodomain constructs Brd2(1), Brd2(2), Brd3(1), Brd3(2); His6 (N); made in house; host or cells: E. coli BL21(DE3)
T7 sequence (P25440 344-453 M438L limits assumed): as the sequence (P25440 344-453 limits assumed) above, with M95L counted along it
Experimental: as §4, §2, §3

[13] = Solubility observations; conditions: observation in words
[14] = molecular target: Brd2(1)*(Met165Ala) (Homo sapiens, UniProt P25440, M165A); experiment: DSF thermal shift; assay type: binding; parameters: Plasmids of the eight single BET bromodomain constructs Brd2(1), Brd2(2), Brd3(1), Brd3(2); His6 (N); made in house; host or cells: E. coli BL21(DE3); conditions: mutant
Brd2(1)*(Met165Ala), sequence (P25440 74-180 M165A limits assumed): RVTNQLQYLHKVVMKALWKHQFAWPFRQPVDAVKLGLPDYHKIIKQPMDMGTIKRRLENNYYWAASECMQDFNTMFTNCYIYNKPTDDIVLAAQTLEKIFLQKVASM
Experimental: as §4, §2, §3

T1 sequence (P25440 74-180 limits assumed): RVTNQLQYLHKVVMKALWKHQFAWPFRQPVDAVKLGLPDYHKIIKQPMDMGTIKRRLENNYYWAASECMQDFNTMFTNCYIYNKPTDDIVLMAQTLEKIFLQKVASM

| Compound | Thermal stabilisation brd2(1) [1] [°C] | ΔTm Brd2(1) [1] [K] | Thermal stabilisation brd2(2) [2] [°C] | ΔTm Brd2(2) [2] [K] | Thermal stabilisation brd2(1)L110I [3] [°C] | ΔTm Brd2(1)*(Leu110-Ile) [3] [K] | Thermal stabilisation brd2(1)L110A [4] [°C] | ΔTm Brd2(1)*(Leu110-Ala) [4] [K] | Thermal stabilisation brd2(2)V383I (Table 1); Brd2(2) Leu383-Ile (text) [5] [°C] | ΔTm Brd2(2)*(Leu383-Ile) [5] [K] | Thermal stabilisation brd2(2)L383A [6] [°C] | ΔTm Brd2(2)*(Leu383-Ala) [6] [K] | Selectivity for Brd2(2) mutants relative to wild type by ITC (FIG. 16) [9] | further results |
| --- | --- | --- | --- | --- | --- | --- | --- | --- | --- | --- | --- | --- | --- | --- |
| COC(=O)CC1(C)N=C(c2ccc(Cl)cc2)c2cc(OC)ccc2-n2c(C)nnc21 (racemic) [Compound 5, (+−)-methyl 2-(6-(4-chlorophenyl)-8-methoxy-1,4-dimethyl-4H-benzo[f][1,2,4]triazolo[4,3-a][1,4]diazepin-4-yl)acetate] | 2.2 ± 0.3 | 2.2 ± 0.3 | 5.3 ± 0.3 | 5.3 ± 0.3 | 3.3 ± 0.4 | 3.3 ± 0.3 | 2.9 ± 0.4 | 2.9 ± 0.4 | 6.8 ± 0.1 | 6.8 ± 0.1 | 6.6 ± 0.4 | 6.6 ± 0.4 | – | – |
| COC(=O)[C@@H](C)[C@@H]1N=C(c2ccc(Cl)cc2)c2cc(OC)ccc2-n2c(C)nnc21 (racemic) [Compound 6, (+−)-methyl (S)-2-((S)-6-(4-chlorophenyl)-8-methoxy-1-methyl-4H-benzo[f][1,2,4]triazolo[4,3-a][1,4]diazepin-4-yl)propanoate] | −0.3 ± 0.2 | −0.3 ± 0.2 | 0.2 ± 0.2 | 0.2 ± 0.2 | 0.0 ± 0.5 | 0.0 ± 0.5 | 1.6 ± 0.2 | 1.6 ± 0.2 | 0.3 ± 0.2 | 0.3 ± 0.2 | 0.8 ± 0.6 | 0.8 ± 0.6 | – | – |
| CC[C@H](C(=O)OC)[C@@H]1N=C(c2ccc(Cl)cc2)c2cc(OC)ccc2-n2c(C)nnc21 (racemic) [Compound 14, (+−)-methyl (S)-2-((S)-6-(4-chlorophenyl)-8-methoxy-1-methyl-4H-benzo[f][1,2,4]triazolo[4,3-a][1,4]diazepin-4-yl)butanoate] | – | 1.0 ± 0.3 | – | 0.9 ± 0.4 | – | 0.5 ± 0.0 | – | 1.8 ± 0.4 | – | 0.9 ± 0.3 | – | 2.4 ± 0.6 | – | ΔTm Brd4(1) [7]: 0.5 ± 0.1 K; ΔTm Brd4(2) [8]: 0.1 ± 0.1 K |
| CCNC(=O)[C@H](C)[C@@H]1N=C(c2ccc(Cl)cc2)c2cc(OC)ccc2-n2c(C)nnc21 (racemic) [ME-Am1, (+−) (R)-2-((S)-6-(4-chlorophenyl)-8-methoxy-1-methyl-4H-benzo[f][1,2,4]triazolo[4,3-a][1,4]diazepin-4-yl)-N-ethylpropanamide] | – | – | – | – | – | – | – | – | – | – | – | – | higher selectivity for the mutants relative to wild types | – |
| CCN(CC)C(=O)[C@H](C)[C@@H]1N=C(c2ccc(Cl)cc2)c2cc(OC)ccc2-n2c(C)nnc21 (racemic) [ME-Am2, (+−) (R)-2-((S)-6-(4-chlorophenyl)-8-methoxy-1-methyl-4H-benzo[f][1,2,4]triazolo[4,3-a][1,4]diazepin-4-yl)-N,N-diethylpropanamide] | – | – | – | – | – | – | – | – | – | – | – | – | higher selectivity for the mutants relative to wild types | – |
| COc1ccc(-c2ccc(S(=O)(=O)Nc3ccc4c(c3)CN(C)C(=O)N4)cc2)cc1 [Compound 50, 4′-methoxy-N-(3-methyl-2-oxo-1,2,3,4-tetrahydroquinazolin-6-yl)-[1,1′-biphenyl]-4-sulfonamide] | – | – | – | 0.7 ± 0.2 | – | – | – | – | – | – | – | – | – | ΔTm Brd2(1)*(Met165-Leu) [10]: 1.7 ± 0.1 K; ΔTm Brd2(2)*(Met165-Ala) [11]: 4.1 ± 0.1 K; ΔTm Brd2(2)*(Met165-Leu) [12]: 3.8 ± 0.2 K; Solubility [13]: solubility of the compound decreased; ΔTm Brd2(1)*(Met165-Ala) [14]: 5.3 ± 0.3 K |

Reference: US20170122958A1, “Enzymes Functional Probes” (University of Dundee, priority 2013, published 2017)
